Laboratory results taken from ChEMBL document CHEMBL2440031, “Benzochalcones bearing pyrazoline moieties show anti-colorectal cancer activities and selective inhibitory effects on aurora kinases” (Bioorg Med Chem, 2013).
The source made the active and inactive calls. The calls are words filed in the database; no cut-off is given here.

What was measured:
HCT-116 [1] = assay: Cytotoxicity against human HCT116 cells after 7 days using crystal violet staining by clonogenic survival assay; assay type: functional, cell-based; conditions: HCT-116, 168 h
HCT-116 [2] = assay: Increase of p21 expression in human HCT116 cells at 40 uM by Western blot analysis; assay type: functional, cell-based; conditions: TDE = time-dependent effect
HCT-116 [3] = assay: Cell cycle arrest in human HCT116 cells assessed as increase of G1 phase accumulation at 40 uM after 12 to 48 hrs using propidium iodide staining by flow cytometric analysis; assay type: functional, cell-based
HCT-116 [4] = assay: Increase of cyclin-D1 expression in human HCT116 cells at 40 uM after 24 to 48 hrs by Western blot analysis; assay type: functional, cell-based
HCT-116 [5] = assay: Cytotoxicity against human HCT116 cells after 24 to 48 hrs by WST-8 assay; assay type: functional, cell-based
HCT-116 [6] = assay: Increase of CDK expression in human HCT116 cells at 40 uM by Western blot analysis; assay type: functional, cell-based; conditions: TDE = time-dependent effect
HCT-116 [7] = assay: Cytotoxicity against human HCT116 cells up to 40 uM by WST-8 assay; assay type: functional, cell-based; conditions: TDE = time-dependent effect
HCT-116 [8] = assay: Cell cycle arrest in human HCT116 cells assessed as decrease of S phase accumulation at 40 uM after 12 to 48 hrs using propidium iodide staining by flow cytometric analysis; assay type: functional, cell-based
HCT-116 [9] = assay: Cell cycle arrest in human HCT116 cells assessed as accumulation at sub-G1 phase accumulation at 40 uM after 12 to 48 hrs using propidium iodide staining by flow cytometric analysis relative to total cells; assay type: functional
HCT-116 [10] = assay: Increase of cyclin-D1 expression in human HCT116 cells at 40 uM after 12 hrs by Western blot analysis; assay type: functional, cell-based
HCT-116 [11] = assay: Effect on cyclin-A1 expression in human HCT116 cells at 40 uM after 12 to 48 hrs by Western blot analysis; assay type: functional, cell-based
HCT-116 [12] = assay: Cell cycle arrest in human HCT116 cells assessed as decrease of G2/M phase accumulation at 40 uM after 12 to 48 hrs using propidium iodide staining by flow cytometric analysis; assay type: functional, cell-based
HCT-116 [13] = assay: Decrease of cyclin-B1 expression in human HCT116 cells at 40 uM after 24 hrs by Western blot analysis; assay type: functional, cell-based

COc1cc(OC)c(C2CC(c3ccc4ccccc4c3O)=NN2)cc1OC (stereo not drawn) gave an IC50 (HCT-116 [1]) of 9 µM.

COc1ccccc1C1CC(c2ccc3ccccc3c2O)=NN1 (stereo not drawn) showed an IC50 (HCT-116 [1]) of 17.4 µM.

COc1ccc(C2CC(c3ccc4ccccc4c3O)=NN2)cc1 (stereo not drawn) gave an IC50 (HCT-116 [1]) of 13.2 µM.

In the case of COc1cc(OC)c(C2CC(c3c(O)ccc4ccccc34)=NN2c2ccc(Cl)cc2)cc1OC (stereo not drawn), the IC50 (HCT-116 [1]) is reported as 7.8 µM.

Work on COc1cccc(C2CC(c3ccc4ccccc4c3O)=NN2)c1 (stereo not drawn) yielded an IC50 (HCT-116 [1]) of 20.8 µM.

Work on COc1cc(OC)c(C2CC(c3ccc4ccccc4c3O)=NN2)c(OC)c1 (stereo not drawn) yielded an IC50 (HCT-116 [1]) of 32.5 µM.

Compound COc1ccc(C2CC(c3c(O)ccc4ccccc34)=NN2c2ccc(Cl)cc2)c(OC)c1 (stereo not drawn) has an IC50 (HCT-116 [1]) of 5.4 µM.

In the case of COc1cc(OC)cc(C2CC(c3c(O)ccc4ccccc34)=NN2)c1 (stereo not drawn), the IC50 (HCT-116 [1]) is reported as 5.7 µM.

Compound COc1ccc(C2CC(c3c(O)ccc4ccccc34)=NN2)cc1 (stereo not drawn) has an IC50 (HCT-116 [1]) of 7.8 µM.

COc1cc(OC)cc(C2CC(c3ccc4ccccc4c3O)=NN2)c1 (stereo not drawn) showed an IC50 (HCT-116 [1]) of 4.7 µM.

COc1cccc(C2CC(c3ccc4ccccc4c3O)=NN2)c1OC (stereo not drawn) was tested, and the IC50 (HCT-116 [1]) was 15.2 µM.

With COc1cccc(C2CC(c3c(O)ccc4ccccc34)=NN2)c1OC (stereo not drawn) the IC50 (HCT-116 [1]) was 6.3 µM.

Work on COc1ccc(C2CC(c3ccc4ccccc4c3O)=NN2)c(OC)c1OC (stereo not drawn) yielded an IC50 (HCT-116 [1]) of 11.3 µM.

Work on COc1ccc(C2CC(c3c(O)ccc4ccccc34)=NN2c2ccc(Cl)cc2)cc1 (stereo not drawn) yielded an IC50 (HCT-116 [1]) of 9.8 µM.

Compound COc1ccc(C2CC(c3ccc4ccccc4c3O)=NN2)c(OC)c1 (stereo not drawn) has an IC50 (HCT-116 [1]) of 8.8 µM.

In the case of COc1ccc(C2CC(c3c(O)ccc4ccccc34)=NN2)c(OC)c1 (stereo not drawn), the Activity (HCT-116 [2]) is reported as “tde”, the Activity (HCT-116 [3]) is reported as “Active” and the Activity (HCT-116 [4]) is reported as “inactive”. For the same compound, the Activity (HCT-116 [5]) was “Dose-dependent effect”, the Activity (HCT-116 [6]) was “tde” and the Activity (HCT-116 [7]) was “tde”. For the same compound, the Activity (HCT-116 [8]) was “Active”, the IC50 (HCT-116 [1]) was 2.4 µM and the Activity (HCT-116 [9]) was 21.3%. The Activity (HCT-116 [10]) was “Active”, the Activity (HCT-116 [11]) was “Active” and the Activity (HCT-116 [12]) was “Active”. The Activity (HCT-116 [13]) was “Active”.
